Key:
[1] = test system: endopeptidase; experiment: Inhibitory activity against metalloproteases other than ECE (endopeptidase); assay type: biochemical; conditions: at 10^-5M
From the text: (§1) The inhibitory activity of the compound of Preparation 1 against metalloproteases other than ECE, such as endopeptidase, stromelissin, and the like, are under 20% at 10^-5M, and therefore, the compound is highly specific to ECE.

[2] = target: T1, rat lung ECE (Rattus norvegicus, UniProt P42893); experiment: ECE inhibitory activity (rat lung ECE, conversion of human big ET-1 to ET-1, sandwich enzyme immunoassay); assay type: biochemical; conditions: rat lung ECE 10 µg, human big ET-1 0.8µg, 37°C, one hour
T1 construct: The solution was ultracentrifuged to obtain a supernatant, which can be used as the rat lung ECE; from tissue; host or cells: rat lung
T1 sequence (P42893 1-762): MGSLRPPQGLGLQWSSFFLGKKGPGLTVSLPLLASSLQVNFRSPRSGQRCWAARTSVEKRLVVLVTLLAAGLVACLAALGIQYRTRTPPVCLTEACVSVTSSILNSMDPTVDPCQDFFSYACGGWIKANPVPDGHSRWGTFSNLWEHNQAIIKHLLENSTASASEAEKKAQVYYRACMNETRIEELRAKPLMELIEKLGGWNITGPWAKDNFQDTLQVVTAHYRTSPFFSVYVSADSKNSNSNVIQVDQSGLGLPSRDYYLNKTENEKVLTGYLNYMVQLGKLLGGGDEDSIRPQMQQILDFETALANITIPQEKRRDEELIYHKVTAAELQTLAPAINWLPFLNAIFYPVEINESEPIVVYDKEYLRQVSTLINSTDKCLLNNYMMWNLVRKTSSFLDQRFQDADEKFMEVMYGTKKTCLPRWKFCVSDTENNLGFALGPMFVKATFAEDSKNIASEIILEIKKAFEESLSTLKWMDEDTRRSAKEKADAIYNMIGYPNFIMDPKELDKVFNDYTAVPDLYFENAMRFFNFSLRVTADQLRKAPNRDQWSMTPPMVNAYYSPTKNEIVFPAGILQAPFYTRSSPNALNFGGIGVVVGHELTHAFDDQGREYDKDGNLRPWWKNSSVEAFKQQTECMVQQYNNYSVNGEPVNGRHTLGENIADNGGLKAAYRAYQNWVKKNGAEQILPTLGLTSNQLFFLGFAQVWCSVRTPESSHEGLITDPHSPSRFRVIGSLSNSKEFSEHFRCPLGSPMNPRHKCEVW
Description: Preparation of rat lung ECE and measurement of ECE inhibitory activity
Rat lung tissue was homogenized with a homogenizer in ice-cold 20 mM Tris-HCl buffer (pH7.5) containing 5 mM magnesium chloride, 1 mM phenylmethylsulfonyl fluoride (PMSF), 20 µM pepstatin A, and 20 µM leupeptin. The homogenate was centrifuged at 800 x G, and the supernatant was ultracentrifuged at 100,000 x G. Then, the procedures in which the resulting pellet was resuspended in the above buffer and ultracentrifuged as shown above, were repeated further twice so that plasma components and the like were removed. The resulting pellet was suspended, homogenized with a glass homogenizer, and ultracentrifuged. The resulting pellet was solubilized in 0.5% Triton X- 100. The solution was ultracentrifuged to obtain a supernatant, which can be used as the rat lung ECE. Each test compound and the rat lung ECE (10 µg) were preincubated at 37°C for 15 minutes in a 100mM Tris-HCl buffer (pH7.0) containing 1mM NEM, 100µM leupeptin, and 20µM pepstatin A, and then human big ET-1 (0.8µg) was added thereto (totally 200µl), and the mixture was incubated at 37°C for one hour.
The reaction was stopped by the addition of EDTA to give a final concentration of 1mM. ECE activities were determined to quantify the produced ET-1 by the ET-1 specific sandwich enzyme immunoassay method.
ECE inhibitory activities of the test compounds were evaluated by determination of the ECE activities in the presence or absence of the test compounds.

[3] = target: stromelissin (Homo sapiens, UniProt P08254); experiment: Inhibitory activity against metalloproteases other than ECE (stromelissin); assay type: biochemical; conditions: at 10^-5M
stromelissin, sequence (P08254 100-477): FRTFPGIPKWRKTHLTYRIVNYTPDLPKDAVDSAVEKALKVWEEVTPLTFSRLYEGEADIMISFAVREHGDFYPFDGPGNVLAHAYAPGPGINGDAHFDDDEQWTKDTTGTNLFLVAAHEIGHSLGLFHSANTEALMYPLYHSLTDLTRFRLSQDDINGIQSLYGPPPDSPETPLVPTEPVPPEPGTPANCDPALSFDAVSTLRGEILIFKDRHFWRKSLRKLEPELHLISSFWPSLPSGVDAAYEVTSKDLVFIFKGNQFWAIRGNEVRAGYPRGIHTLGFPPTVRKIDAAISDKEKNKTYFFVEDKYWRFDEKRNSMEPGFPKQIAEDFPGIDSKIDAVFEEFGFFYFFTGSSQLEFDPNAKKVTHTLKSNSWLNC
From the text: as §1

[4] = target: T2, ECE (Rattus norvegicus, UniProt P42893); experiment: Effect on the change in blood pressure induced by big ET-1 in anesthetized rats (ECE inhibition in vivo); set-up: species or system Male SD rat; conditions: for Increase in systolic pressure: 15 minutes before big ET-1 (1nmol/kg i.v.), vehicle group 96 ± 4
T2 construct: from tissue; host or cells: whole anesthetized male SD rat (in vivo)
T2 sequence (P42893 1-762): T1 sequence (P42893 1-762)
Description: Test 2 Effect on the change in blood pressure induced by big ET-1 in rats
Male SD rat (body weight 230∼280g) was anesthetized with sodium thiobarbiturate (65mg/kg, i.p.) and fixed on a warming surgical bed, and the right femoral artery and the vein were cannulated for measurement of arterial blood pressure and for injection of test compounds, respectively. The ganglia were blocked by intraperitoneal administration of pentolinium (10mg/kg). After stabilization of blood pressure for about 10 minutes, test compound or its vehicle (polyethylene glycol 400) was administered intravenously (0.5ml/kg). Fifteen minutes later, the big ET-1 (1nmol/kg) was administered intravenously. ECE inhibitory activities of the test compounds in vivo shown by an index of the change in blood pressure induced by big ET-1 were evaluated by inhibitory ratio to that of the vehicle group.

Compound	inhibitory activity [1]	IC50 [2]	inhibition at 10 µM [3]	Big ET-1-induced increasing in blood pressure ([4]; 3 and 10mg/kg intravenously)	Increase in systolic pressure ([4]; Dose 3 mg/kg intravenously)	Increase in systolic pressure ([4]; Dose 10 mg/kg intravenously)
Cc1ccc(S(=O)(=O)NC(=O)Nc2c(C#N)cnn2-c2ccccc2)cc1 [Preparation 1, 4-cyano-1-phenyl-5-{3-(4-toluenesulfonyl)ureido}-(1H)-pyrazole]	under 20%	4.6 µM	< 20%			
Cc1nn(-c2ccccc2)c(NC(=O)NS(=O)(=O)c2ccc(Cl)cc2)c1C#N [Example 37, 4-cyano-3-methyl-1-phenyl-5-{3-(4-chlorobenzenesulfonyl)ureido}-(1H)-pyrazole]		0.045 µM		apparently inhibited	65 ± 8 mmHg	34 ± 6 mmHg
Cc1ccc(S(=O)(=O)NC(=O)Nc2c(C#N)cnn2C2CCCCC2)cc1 [Example 4, 4-cyano-1-cyclohexyl-5-{3-(4-toluenesulfonyl)ureido}-(1H)-pyrazole]		0.29 µM				

Source: patent EP0885890A1, “SULFONYLUREIDOPYRAZOLE DERIVATIVES” (SUMITOMO PHARMACEUTICALS COMPANY, LIMITED, priority 1996, dated 1997)
